We go through 22 compounds from PMC3089805 (Chemmedchem, 2010).

Values after ≈ are worked out from the molar mass of the structure shown. Marks after values point to notes of the source that are not given here. Bounds are passed on as bounds.

Data set [1] can be described thus: Human foreskin cell toxicity. It counts as cell-based. The conditions noted are these: human.
A further data set concerns S. aureus (MRSA). Put plainly: MIC determination, liquid microdilution, S. aureus. It counts as cell-based. The following applies: Staphylococcus aureus, read-out: MIC S. aureus (MRSA).
In the next data set the test system is C. jejuni strain H840. Put plainly: MIC determination, liquid microdilution, C. jejuni. It counts as cell-based. The conditions noted are these: Campylobacter jejuni, H840, 27 h, read-out: MIC C. jejuni.
The subject of a further data set is H. pylori strain 26695. Briefly: MIC determination, liquid microdilution, H. pylori. The format is cell-based. The conditions noted are these: Helicobacter pylori, 26695, 27 h, read-out: MIC H. pylori. In general terms: Broth dilution looks for growth in wells or tubes with falling amounts of substance.
In another data set the test system is S. epidermidis. Briefly: MIC determination, liquid microdilution, S. epidermidis. The format is cell-based. The following applies: Staphylococcus epidermidis, read-out: MIC S. epidermidis.
In the next data set the test system is H. pylori PFOR enzyme. Briefly: Direct PFOR enzyme assay. The format is biochemical. The following applies: [Drug] = 40 μM.
In another data set the test system is C. difficile VPI 10463. Briefly: MIC determination, agar dilution, C. difficile. It counts as cell-based, Clostridium difficile. The following applies: Clostridioides difficile, VPI10463, 18 h, read-out: MIC C. difficile.

On to `CC(=O)Nc1ncc([N+](=O)[O-])s1` [Analogue 48, N-(5-Nitrothiazol-2-yl)acetamide], for which the CC50 at 48 h in data set [1] (human foreskin cells) is over 85.5 µM. In addition, the MIC with S. aureus (MRSA) worked out at 171 µM (≈ 32 µg/mL); with C. jejuni strain H840, 10.7 µM (≈ 2 µg/mL); in the data set on H. pylori strain 26695, 0.7 µM (≈ 0.131 µg/mL); with S. epidermidis it was 21.4 µM (≈ 4.01 µg/mL).
In data set [1] (human foreskin cells), `O=C(Nc1ncc([N+](=O)[O-])s1)c1ccc(Cl)c(C(F)(F)F)c1` [Analogue 41, 4-Chloro-N-(5-nitrothiazol-2-yl)-3-(trifluoromethyl)benzamide] gave a CC50 at 48 h of over 45.5 µM. Further, the MIC came to 2.8 µM (≈ 0.985 µg/mL) with S. aureus (MRSA); 2.8 µM (≈ 0.985 µg/mL) in the data set with C. jejuni strain H840; 2.8 µM (≈ 0.985 µg/mL) in the data set on H. pylori strain 26695; 2.8 µM (≈ 0.985 µg/mL) in the data set on S. epidermidis; 1.4 µM (≈ 0.492 µg/mL) in the data set on C. difficile VPI 10463. Also, the “PFOR Inhibition” value in the data set with H. pylori PFOR enzyme stood at 33 ± 1%.
On to `O=C(Nc1ncc([N+](=O)[O-])s1)c1ccsc1` [Analogue 74, N-(5-Nitrothiazol-2-yl)thiophene-3-carboxamide], for which the CC50 at 48 h in data set [1] (human foreskin cells) was over 62.7 µM. In addition, the MIC came out at 23.5 µM (≈ 6 µg/mL) with S. aureus (MRSA); 5.9 µM (≈ 1.51 µg/mL) in the data set on C. jejuni strain H840; 0.7 µM (≈ 0.179 µg/mL) in the data set with H. pylori strain 26695; 15.7 µM (≈ 4.01 µg/mL) with S. epidermidis; 2.9 µM (≈ 0.74 µg/mL) in the data set on C. difficile VPI 10463. The “PFOR Inhibition” value in the data set with H. pylori PFOR enzyme was 58.5 ± 3.5 ^b %.
For the compound `O=C(Nc1ncc([N+](=O)[O-])s1)c1cccc(C(F)(F)F)c1Cl` [Analogue 40, 2-Chloro-N-(5-nitrothiazol-2-yl)-3-(trifluoromethyl)benzamide], the 50% cytotoxic concentration (CC50) at 48 h in data set [1] (human foreskin cells) was over 45.5 µM. The MIC with S. aureus (MRSA) is 11.4 µM (≈ 4.01 µg/mL); with H. pylori strain 26695 it was 0.9 µM (≈ 0.317 µg/mL); in the data set with S. epidermidis it was 11.4 µM (≈ 4.01 µg/mL).
In the case of `O=C(Nc1ncc([N+](=O)[O-])s1)c1sc2ccccc2c1Cl` [Analogue 85, 3-Chloro-N-(5-nitrothiazol-2-yl)benzo[b]thiophene-2-carboxamide], the CC50 at 48 h in data set [1] (human foreskin cells) is over 47.1 µM.
As to `O=C(Nc1ncc([N+](=O)[O-])s1)c1ccc(F)cc1` [Analogue 8, 4-Fluoro-N-(5-nitrothiazol-2-yl)benzamide], it took 29.9 µM to reach half-maximal cytotoxicity in data set [1] (human foreskin cells) (CC50 at 48 h). Moreover, the MIC in the data set with C. jejuni strain H840 was determined as 2.8 µM (≈ 0.748 µg/mL); in the data set on H. pylori strain 26695, 0.9 µM (≈ 0.241 µg/mL); with C. difficile VPI 10463 it was 3.3 µM (≈ 0.882 µg/mL). For the same compound, the “PFOR Inhibition” value in the data set with H. pylori PFOR enzyme is on record as 85 ^b %.
In data set [1] (human foreskin cells), `O=C(Nc1ncc([N+](=O)[O-])s1)c1cccc(OC(F)(F)F)c1` [Analogue 31, N-(5-Nitrothiazol-2-yl)-3-(trifluoromethoxy)benzamide] showed a CC50 at 48 h of over 48 µM. In addition, the minimal inhibitory concentration (MIC) in the data set with S. aureus (MRSA) turned out to be 6 µM (≈ 2 µg/mL); in the data set with C. jejuni strain H840, 9 µM (≈ 3 µg/mL); with H. pylori strain 26695, 1.1 µM (≈ 0.367 µg/mL); in the data set with S. epidermidis, 12 µM (≈ 4 µg/mL).
Consider `O=C(Nc1ncc([N+](=O)[O-])s1)c1cccs1` [Analogue 76, N-(5-Nitrothiazol-2-yl)thiophene-2-carboxamide], for which, in data set [1] (human foreskin cells), the 50% cytotoxic concentration (CC50) at 48 h was over 62.7 µM. In the data set with H. pylori PFOR enzyme, the “PFOR Inhibition” value is 56 ± 6 ^b %. Also, the minimal inhibitory concentration (MIC) is 31.3 µM (≈ 7.99 µg/mL) with S. epidermidis and 1.5 µM (≈ 0.383 µg/mL) in the data set on C. difficile VPI 10463.
For the compound `O=C(Nc1ncc([N+](=O)[O-])s1)c1cccnc1F` [Analogue 59, 2-Fluoro-N-(5-nitrothiazol-2-yl)nicotinamide], the CC50 at 48 h in data set [1] (human foreskin cells) is over 59.7 µM. Also, the MIC in the data set with S. aureus (MRSA) came out at 119 µM (≈ 32 µg/mL); with S. epidermidis, 119 µM (≈ 32 µg/mL); in the data set on C. difficile VPI 10463, 2.8 µM (≈ 0.751 µg/mL). Moreover, the “PFOR Inhibition” value in the data set with H. pylori PFOR enzyme was found to be 61 ± 13%.
`CCCCCC(=O)Nc1ncc([N+](=O)[O-])s1` [Analogue 50, N-(5-Nitrothiazol-2-yl)hexanamide]: in data set [1] (human foreskin cells), the CC50 at 48 h was over 65.8 µM. In addition, the MIC is 132 µM (≈ 32 µg/mL) in the data set with S. aureus (MRSA), 2.1 µM (≈ 0.511 µg/mL) with C. jejuni strain H840, 0.5 µM (≈ 0.122 µg/mL) with H. pylori strain 26695 and 8.2 µM (≈ 1.99 µg/mL) with C. difficile VPI 10463. The “PFOR Inhibition” value with H. pylori PFOR enzyme was 64 ± 6 ^b %.
For the compound `O=C(Nc1ncc([N+](=O)[O-])s1)c1cc2ccccc2s1` [Analogue 84, N-(5-Nitrothiazol-2-yl)benzo[b]thiophene-2-carboxamide], the half-maximal cytotoxic concentration (CC50) at 48 h in data set [1] (human foreskin cells) is over 52.6 µM. For the same compound, the MIC with S. aureus (MRSA) came out at 6.6 µM (≈ 2.02 µg/mL); in the data set with C. jejuni strain H840, 9.8 µM (≈ 2.99 µg/mL); with H. pylori strain 26695, 2.5 µM (≈ 0.763 µg/mL); in the data set on S. epidermidis it was 13.1 µM (≈ 4 µg/mL).
For `O=C(Nc1ncc([N+](=O)[O-])s1)c1sc2cc(F)ccc2c1Cl` [Analogue 86, 3-Chloro-6-fluoro-N-(5-nitrothiazol-2-yl)benzo[b]thiophene-2-carboxamide] the same measures were 33.5 µM, 2.1 µM (≈ 0.751 µg/mL), 5.6 µM (≈ 2 µg/mL), 1 µM (≈ 0.358 µg/mL) and 5.6 µM (≈ 2 µg/mL).
Take `O=C(Nc1ncc([N+](=O)[O-])s1)c1ccco1` [Analogue 61, N-(5-Nitrothiazol-2-yl)furan-2-carboxamide]: in data set [1] (human foreskin cells), the cytotoxic concentration (CC50) at 48 h came to 66.9 µM. For the same compound, the minimum inhibitory concentration (MIC) was determined as 50.2 µM (≈ 12 µg/mL) with S. aureus (MRSA); 8.4 µM (≈ 2.01 µg/mL) with C. jejuni strain H840; 1 µM (≈ 0.239 µg/mL) in the data set on H. pylori strain 26695; 66.9 µM (≈ 16 µg/mL) in the data set on S. epidermidis; 2.4 µM (≈ 0.574 µg/mL) in the data set with C. difficile VPI 10463. Further, the “PFOR Inhibition” value with H. pylori PFOR enzyme is listed as 42 ^b %.
Consider `O=C(Nc1ncc([N+](=O)[O-])s1)c1ccoc1` [Analogue 60, N-(5-Nitrothiazol-2-yl)furan-3-carboxamide], for which the CC50 at 48 h in data set [1] (human foreskin cells) was over 66.9 µM. The “PFOR Inhibition” value with H. pylori PFOR enzyme is 58 ± 2 ^b %. In addition, the minimum inhibitory concentration (MIC) in the data set on S. epidermidis amounted to 33.4 µM (≈ 7.99 µg/mL); with C. difficile VPI 10463, 1.7 µM (≈ 0.407 µg/mL).
For the compound `O=C(Nc1ncc([N+](=O)[O-])s1)c1ccc(-c2cccc(C(F)(F)F)c2)o1` [Analogue 68, N-(5-Nitrothiazol-2-yl)-5-(3-(trifluoromethyl)phenyl)furan-2-carboxamide], the CC50 at 48 h in data set [1] (human foreskin cells) is over 41.7 µM. The MIC in the data set on S. aureus (MRSA) was 11.4 µM (≈ 4.37 µg/mL); in the data set on C. jejuni strain H840 it was 8.5 µM (≈ 3.26 µg/mL); in the data set with H. pylori strain 26695, 1.1 µM (≈ 0.422 µg/mL); in the data set with S. epidermidis, 5.7 µM (≈ 2.18 µg/mL).
In data set [1] (human foreskin cells), `O=C(Nc1ncc([N+](=O)[O-])s1)c1ccc([N+](=O)[O-])o1` [Analogue 64, 5-Nitro-N-(5-nitrothiazol-2-yl)furan-2-carboxamide] displayed a CC50 at 48 h of over 56.3 µM. In addition, the minimal inhibitory concentration (MIC) stood at 113 µM (≈ 32 µg/mL) with S. aureus (MRSA), 7 µM (≈ 1.99 µg/mL) in the data set with C. jejuni strain H840, 21.1 µM (≈ 6 µg/mL) in the data set on H. pylori strain 26695 and 28.1 µM (≈ 7.99 µg/mL) in the data set with S. epidermidis.
Take `O=C(Nc1ncc([N+](=O)[O-])s1)c1ccc(-c2ccsc2)s1` [Analogue 82, N-(5-Nitrothiazol-2-yl)-2,3′-bithiophene-5-carboxamide]: the results for the MIC in the data set with C. jejuni strain H840 and in the data set on H. pylori strain 26695 were 94.8 µM (≈ 32 µg/mL) and 3 µM (≈ 1.01 µg/mL), respectively.
For `CCCC(=O)Nc1ncc([N+](=O)[O-])s1` [Analogue 49, N-(5-Nitrothiazol-2-yl)butyramide], in that order: 13.9 µM (≈ 2.99 µg/mL) and 3.5 µM (≈ 0.753 µg/mL).
For `O=C(Nc1ncc([N+](=O)[O-])s1)c1cc2cc([N+](=O)[O-])ccc2o1` [Analogue 73, 5-Nitro-N-(5-nitrothiazol-2-yl)benzofuran-2-carboxamide], in that order: 4.5 µM (≈ 1.5 µg/mL) and 4.5 µM (≈ 1.5 µg/mL).
Consider `CCCCCCCCCC(=O)Nc1ncc([N+](=O)[O-])s1` [Analogue 52, N-(5-Nitrothiazol-2-yl)decanamide], for which the values for the minimal inhibitory concentration (MIC) in the data set with C. jejuni strain H840 and with H. pylori strain 26695 were 107 µM (≈ 32 µg/mL) and 0.8 µM (≈ 0.24 µg/mL), respectively.
As for `COc1ccccc1C(=O)Nc1ncc([N+](=O)[O-])s1` [Analogue 28, 2-Methoxy-N-(5-nitrothiazol-2-yl)benzamide], the figures for the MIC in the data set on C. jejuni strain H840 and in the data set with H. pylori strain 26695 were 17.9 µM (≈ 5 µg/mL) and 1.8 µM (≈ 0.503 µg/mL), respectively.
With `O=C(Nc1ncc([N+](=O)[O-])s1)c1cccc([N+](=O)[O-])c1` [Analogue 26, 3-Nitro-N-(5-nitrothiazol-2-yl)benzamide], in data set [1], it took 27.2 µM to reach half-maximal cytotoxicity (CC50 at 48 h). Further, the minimum inhibitory concentration (MIC) in the data set with S. aureus (MRSA) came to 10.2 µM (≈ 3 µg/mL); in the data set on C. jejuni strain H840 it was 27.2 µM (≈ 8 µg/mL); in the data set with H. pylori strain 26695, 1.3 µM (≈ 0.383 µg/mL); in the data set with S. epidermidis, 10.2 µM (≈ 3 µg/mL).

A word on the CC50: it is the concentration that lowers cell viability or growth by half. High values mean better tolerance by the cells, low ones harm at low concentration. As usually defined, the MIC is the least concentration at which growth counts as inhibited.
